According to publication PMC6352954, “Benzylamides and piperazinoarylamides of ibuprofen as fatty acid amide hydrolase inhibitors” (Journal of Enzyme Inhibition and Medicinal Chemistry, 2019):
Values belong to the molecule of their own block, whether it stands above or below them.

Columns and labels:
FAAH [1] = target: T1, FAAH (Rattus norvegicus, UniProt P97612); assay: FAAH assay: inhibition of rat brain [3H]AEA hydrolysis; settings: for FAAH inhibitory activity (in words): 0.5 μM [3H]AEA, rat brain homogenates
T1 sequence (P97612 1-579): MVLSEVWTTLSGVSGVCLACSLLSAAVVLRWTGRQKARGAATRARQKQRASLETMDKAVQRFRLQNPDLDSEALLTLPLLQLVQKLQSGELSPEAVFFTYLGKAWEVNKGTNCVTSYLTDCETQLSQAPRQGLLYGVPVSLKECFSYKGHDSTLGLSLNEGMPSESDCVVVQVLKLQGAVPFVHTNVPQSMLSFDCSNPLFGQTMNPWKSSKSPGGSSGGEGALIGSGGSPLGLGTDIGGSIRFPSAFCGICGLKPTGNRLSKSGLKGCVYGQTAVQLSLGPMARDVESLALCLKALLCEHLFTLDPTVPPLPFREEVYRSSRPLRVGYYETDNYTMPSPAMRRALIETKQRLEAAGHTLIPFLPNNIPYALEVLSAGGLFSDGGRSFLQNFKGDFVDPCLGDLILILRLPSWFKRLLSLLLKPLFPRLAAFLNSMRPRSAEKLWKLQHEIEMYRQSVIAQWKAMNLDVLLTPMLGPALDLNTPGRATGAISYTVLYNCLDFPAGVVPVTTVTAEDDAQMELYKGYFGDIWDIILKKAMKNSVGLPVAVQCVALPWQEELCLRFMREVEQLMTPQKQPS

[2] = design: method as in PMID 12767601; settings: cited from earlier work
FAAH [3] = target: T1, FAAH; settings: cited from earlier work

SMILES: CC(C)Cc1ccc(C(C)C(=O)NCc2c(Cl)cccc2Cl)cc1 (centres unmarked) [Compound 16, N-(2,6-Dichlorobenzyl)-2–(4-isobutylphenyl)propanamide]
melting point: 130 to 135 °C
FAAH inhibitory activity (in words) (FAAH [1]): complete loss of activity

SMILES: CC(C)Cc1ccc(C(C)C(=O)NCc2ccccc2Cl)cc1 (centres unmarked) [Compound 11, N-(2-Chlorobenzyl)-2–(4-isobutylphenyl)propanamide]
IC50 (FAAH [1]): 4.1 µM

SMILES: Cc1cccnc1NC(=O)C(C)c1ccc(CC(C)C)cc1 (centres unmarked) [Ibu-AM5]
ulcerogenic potency relative to ibuprofen [2]: much lower ulcerogenic potency than ibuprofen
potency as reversible FAAH inhibitor relative to ibuprofen (FAAH [3]): two to three orders of magnitude more potent than ibuprofen

SMILES: CC(C)Cc1ccc(C(C)C(=O)NCc2cc(Cl)ccc2Cl)cc1 (centres unmarked) [Compound 15, N-(2,5-Dichlorobenzyl)-2–(4-isobutylphenyl)propanamide]
IC50 (FAAH [1]): 4.4 µM

SMILES: Cc1cccnc1NC(=O)[C@@H](C)c1ccc(CC(C)C)cc1 [(S)-IbuAM5]
FAAH inhibitory activity of (S)-enantiomer relative to (R)-enantiomer (FAAH [3]): 10 fold

SMILES: CC(C)Cc1ccc(C(C)C(=O)NCc2ccc(Cl)cc2Cl)cc1 (centres unmarked) [Compound 14, N-(2,4-Dichlorobenzyl)-2–(4-isobutylphenyl)propanamide]
IC50 (FAAH [1]): 21 µM

Other lines, results leading:

loss of FAAH inhibitory activity relative to amide 19 (FAAH [1]; 3,4-dichlorophenyl versus 3-chlorophenyl analogue): 10 fold
SMILES: CC(C)Cc1ccc(C(C)C(=O)N2CCN(c3ccc(Cl)c(Cl)c3)CC2)cc1 (centres unmarked) [Compound 21, 1–(4-(3,4-Dichlorophenyl)piperazin-1-yl)-2–(4-isobutylphenyl)propan-1-one]

FAAH inhibitory activity (in words) (FAAH [1]): loss of activity
SMILES: Cc1ccccc1N1CCN(C(=O)C(C)c2ccc(CC(C)C)cc2)CC1 (centres unmarked) [Compound 27, 2–(4-Isobutylphenyl)-1–(4-(o-tolyl)piperazin-1-yl)propan-1-one]

IC50 (FAAH [1]): 17 µM
SMILES: CC(C)Cc1ccc(C(C)C(=O)N2CCN(c3ccc(F)cc3)CC2)cc1 (centres unmarked) [Compound 22, 1–(4-(4-Fluorophenyl)piperazin-1-yl)-2–(4-isobutylphenyl)propan-1-one]
